From patent US4985595A, “Aminobenzamide derivatives” (Daiichi Pharmaceutical Co., Ltd., priority 1984, dated 1991)
Like-named read-outs stand apart in the source and are kept apart here.

Legend:
stress ulcer in rat = assay: Inhibitory effect on stress ulcer in rat (restraint and water-immersion stress method); type: in vivo; conditions: read-out: Inhibitory Effect (%)
Protocol: INHIBITORY EFFECT ON STRESS ULCER IN RAT
The compounds of this invention were administered orally to 7 rats weighing about 300 g in each group. After 30 minutes, they were immobilized and immersed in water at 21° C. for 7 hours to prepare the stress ulcer.

in vivo = conditions: mouse, po, mice, orally administered, read-out: acute toxicity (LD50)
[1] = disclosed in Japanese Patent Application (OPI) No. 18947/81; cited from earlier work
[2] = 50 mg/kg, oral, rat, 30 minutes before immobilization and immersion in water at 21° C. for 7 hours, *P < 0.05, **P < 0.01
[3] = 100 mg/kg, oral, rat, 30 minutes before immobilization and immersion in water at 21° C. for 7 hours, *P < 0.05, **P < 0.01
[4] = 200 mg/kg, oral, rat, 30 minutes before immobilization and immersion in water at 21° C. for 7 hours, *P < 0.05, **P < 0.01

| SMILES | inhibition in vivo at 50 mg/kg (stress ulcer in rat; Rattus norvegicus, po, 7 h) [%] | inhibition in vivo at 100 mg/kg (stress ulcer in rat; Rattus norvegicus, po, 7 h) [%] | inhibition in vivo at 200 mg/kg (stress ulcer in rat; Rattus norvegicus, po, 7 h) [%] | LD50 (in vivo) [mg/kg] | inhibition in vivo at 50 mg/kg (stress ulcer in rat; [2]) [%] | inhibition in vivo at 100 mg/kg (stress ulcer in rat; [3]) [%] | inhibition in vivo at 200 mg/kg (stress ulcer in rat; [4]) [%] | chemical and physical properties (stability) [1] |
| --- | --- | --- | --- | --- | --- | --- | --- | --- |
| COc1ccc(CCNC(=O)CN(CS(=O)(=O)[O-])c2cccc(C(N)=O)c2)cc1OC.[Na+] | 34 | 36 | 42 | > 2000 | – | – | – | – |
| CNC(=O)c1cccc(NCC(=O)NCCc2ccc(OC)c(OC)c2)c1 [Compound a] | – | – | – | – | 46 | 60 | 72 | – |
| CCNC(=O)c1cccc(NCC(=O)NCCc2ccc(OC)c(OC)c2)c1 [Compound b, 3-((2-((2-(3,4-dimethoxyphenyl)ethyl)amino)-2-oxoethyl)amino)-N-ethylbenzamide] | – | – | – | – | 30 | 53 | 63 | – |
| CNC(=O)c1ccc(OC)cc1NCC(=O)NCCc1ccc(OC)c(OC)c1 [Compound c, 2-((2-((2-(3,4-dimethoxyphenyl)ethyl)amino)-2-oxoethyl)amino)-4-methoxy-N-methylbenzamide] | – | – | – | > 2000 | 33 | 36 | 69 | – |
| COc1ccc(CCNC(=O)CNc2cccc(C(=O)N(C)C)c2)cc1OC [Compound e, 3((2-((2-(3,4-Dimethoxyphenyl)ethyl)amino)-2-oxoethyl)amino)-N,N-dimethylenzamide] | – | – | – | – | 39 | 55 | 64 | – |
| COc1ccc(CCNC(=O)CNc2cccc(C(=O)N3CCOCC3)c2)cc1OC [Compound f, N(2-(3,4-Dimethoxyphenyl)ethyl)-2-((3-morpholinocarbonylphenyl)amino)acetmide] | – | – | – | – | 10 | 53 | 86 | – |
| CNC(=O)c1cc(OC)ccc1NCC(=O)NCCc1ccc(OC)c(OC)c1 [Compound g] | – | – | – | – | 45 | 41 | 65 | – |
| COc1ccc(CCNC(=O)CNc2cccc(C(N)=O)c2)cc1OC.O.O.O [Control, 2-(3-carbamoylphenylamino)-N-(3,4-dimethoxyphenethyl)acetamide trihydrate] | – | – | – | – | – | – | – | stable chemical and physical properties |
